For assay [1], the target named is STM0435 (Salmonella enterica, UniProt Q8ZRC9, D138H/R137H). Kind of assay: biochemical.
Assay [2] has as its target STM0435 (Salmonella enterica, UniProt Q8ZRC9, D138H/R137H/R33H). Kind of assay: biochemical.
Assay [3] addresses STM0435 (Salmonella enterica, UniProt Q8ZRC9, R33H). Kind of assay: biochemical.
For assay [4], the target named is T1, STM0435 (Salmonella enterica, UniProt Q8ZRC9).
T1 sequence (Q8ZRC9 1-163): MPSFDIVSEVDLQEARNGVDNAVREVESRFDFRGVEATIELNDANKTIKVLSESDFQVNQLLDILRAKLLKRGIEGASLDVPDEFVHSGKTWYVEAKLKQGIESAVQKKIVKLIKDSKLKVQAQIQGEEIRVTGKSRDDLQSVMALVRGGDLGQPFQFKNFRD
Kind of assay: SPR. The format is binding.

For the molecule `Nc1nc2c(ncn2[C@@H]2O[C@@H]3CO[P@](=O)(O)O[C@H]4[C@@H](O)[C@H](n5cnc6c(=O)[nH]c(N)nc65)O[C@@H]4CO[P@](=O)(O)O[C@H]3[C@H]2O)c(=O)[nH]1` [c-di-GMP], the Kd came to 25.3 µM in assay [1], 33.2 µM in assay [2], 15.2 µM in assay [3] and 8.38 µM in assay [4].

The values above are taken from publication PMC10978029 (Virulence, 2024).
